Measurements from US8802856B2, “Quaternary ammonium diphenylmethyl compounds useful as muscarinic receptor antagonists” (Theravance Biopharma R&D IP, LLC, priority 2007, dated 2014).
Values belong to the compound of their own block, whether it stands above or below them.

Assays:
MCh response = experiment: Rat Einthoven assay (bronchoprotection); type: in vivo; settings: inhalation; for ID50 (bronchoprotection): 1.5 hrs post-dose
Method: All test compounds are diluted in sterile water and are dosed via the inhalation route (IH). The rats (Sprague-Dawley, male, 250-350 g) are exposed to the aerosol generated from an LC Star Nebulizer Set and driven by a mixture of gases (5% CO2/95% atmospheric air). Each test compound solution is nebulized over a 10 minute time period in a pie shaped dosing chamber capable of holding six rats. At predetermined time points after inhalation of compound, the Einthoven assay is performed.
Thirty minutes prior to the start of pulmonary evaluation, the animals are anesthetized with inactin (thiobutabarbital, 120 mg/kg IP). The jugular vein is catheterized with saline filled polyethylene catheters (PE-50) and used to infuse MCh. The trachea is then dissected and cannulated with a 14G needle and used for rat ventilation during pulmonary evaluation. Once surgery is complete, rats are ventilated using a piston respirator set at a stroke volume of 1 ml/100 g body weight but not exceeding 2.5 ml volume, and at a rate of 90 strokes per minute.
The changes in pressure that occur with each breath are measured. Baseline values are collected for at least 2.5 minutes then rats are challenged non-cumulatively with 2-fold incremental increases of the bronchoconstrictor MCh (5, 10, 20, 40 and 80 μg/ml). The MCh is infused for 2.5 minutes from a syringe pump at a rate of 2 mL/kg/min. The animals are euthanized upon completion of the studies.
Changes in ventilation pressure (cm H2O) in treated animals are expressed as % inhibition of MCh response relative to control animals.
Standard muscarinic antagonists were evaluated in the rat Einthoven assay 1.5 hrs post-dose.
Standards tiotropium and ipratropium were also evaluated 24 hr and/or 6 hr post-dose in the rat Einthoven assay. […] The observed loss of activity at this time point (6 hr) is consistent with its relatively short duration of action in the clinic.

[1] = system: pilocarpine-induced salivation; experiment: Rat antisialagogue assay; type: in vivo; settings: evaluated at 1, 6, and 24 hr post-dose
Method: Rats (Sprague-Dawley, male, 250-350 g) are dosed, anesthetized and cannulated as described for Assay 3. At predetermined time points and after surgery, animals are placed on their dorsal side at a 200 incline with their head in a downward slope. A pre-weighed gauze pad is inserted in the animal's mouth and the muscarinic agonist pilocarpine (PILO) (3 mg/kg, iv.) is administered. Saliva produced during 10 minutes post-PILO is measured gravimetrically by determining the weight of the gauze pad before and after PILO. Antisialagogue effects are expressed as % inhibition of salivation relative to control animals.
The rat antisialagogue assay was developed to assess systemic exposure and calculate the lung selectivity index (LSI) of test compounds. The standard, tiotropium, was evaluated in this model at 1, 6, and 24 hr post-dose. […] This finding is consistent with the peak effects observed in the Einthoven assay.
This model is a modified version of the procedure described in Rechter, “Estimation of anticholinergic drug effects in mice by antagonism against pilocarpine-induced salivation” Ata Pharmacol Toxicol 24:243-254 (1996). The mean weight of saliva in vehicle-treated animals, at each pre-treatment time, is calculated and used to compute % inhibition of salivation, at the corresponding pre-treatment time, at each dose.

[2] = molecular target: T1, hM3 muscarinic receptor subtype (Homo sapiens, UniProt P20309); experiment: Radioligand binding assay on muscarinic receptor subtypes ([3H]-NMS displacement)
T1 construct: expressed in transfected cells; crude membranes prepared in house
T1 sequence (P20309 whole entry): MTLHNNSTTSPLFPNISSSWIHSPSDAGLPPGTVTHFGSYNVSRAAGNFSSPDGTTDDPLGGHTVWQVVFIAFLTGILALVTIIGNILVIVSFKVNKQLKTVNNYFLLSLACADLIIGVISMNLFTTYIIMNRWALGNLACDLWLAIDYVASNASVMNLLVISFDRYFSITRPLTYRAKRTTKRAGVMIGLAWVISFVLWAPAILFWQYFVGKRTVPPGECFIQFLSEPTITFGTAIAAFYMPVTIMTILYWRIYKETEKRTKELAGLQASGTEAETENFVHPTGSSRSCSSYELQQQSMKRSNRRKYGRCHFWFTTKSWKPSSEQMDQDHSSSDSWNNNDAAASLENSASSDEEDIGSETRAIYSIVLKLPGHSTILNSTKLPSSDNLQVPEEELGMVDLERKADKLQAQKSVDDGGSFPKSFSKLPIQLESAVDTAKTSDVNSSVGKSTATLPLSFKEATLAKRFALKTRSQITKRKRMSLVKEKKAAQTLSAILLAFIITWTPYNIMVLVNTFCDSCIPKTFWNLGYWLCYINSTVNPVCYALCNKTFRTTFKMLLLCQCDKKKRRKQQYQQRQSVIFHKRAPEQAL
Method: CHO cell lines stably expressing cloned human hM1, hM2, hM3 and hM4 muscarinic receptor subtypes, respectively, were grown to near confluency in medium consisting of HAM's F-12 supplemented with 10% FBS and 250 μg/mL Geneticin. The cells were grown in a 5% CO2, 37° C. incubator and lifted with 2 mM EDTA in dPBS. Cells were collected by 5 minute centrifugation at 650×g, and cell pellets were either stored frozen at −80° C. or membranes were prepared immediately. For membrane preparation, cell pellets were resuspended in lysis buffer and homogenized with a Polytron PT-2100 tissue disrupter (Kinematica AG; 20 seconds×2 bursts). Crude membranes were centrifuged at 40,000×g for 15 minutes at 4° C. […] The protein concentration of the membrane suspension was determined by the method described in Lowry, O. et al., Journal of Biochemistry 193:265 (1951). […]
Radioligand binding assays were performed in 96-well microtiter plates in a total assay volume of […]. […] Filter plates were rinsed three times with wash buffer (10 mM HEPES) to remove unbound radioactivity. […] The plates were then counted in a PerkinElmer Topcount liquid scintillation counter (PerkinElmer Inc., Wellesley, Mass.). Binding data were analyzed by nonlinear regression analysis with the GraphPad Prism Software package (GraphPad Software, Inc., San Diego, Calif.) using the one-site competition model. […]

SMILES: C[N+]1(C)CCC(OC(=O)C(O)(c2ccccc2)C2CCCC2)C1 (stereo not shown) [glycopyrrolate]
ID50 (bronchoprotection) (MCh response): 15 µg/mL

SMILES: C[N+]1(C)[C@@H]2C[C@@H](OC(=O)C(O)(c3cccs3)c3cccs3)C[C@H]1[C@@H]1O[C@@H]12 [tiotropium]
6 hr versus 24 hr potency values (MCh response): not significantly different
fold more potent at 6 hr and 24 hr compared to 1.5 hr potency (MCh response): about 2 fold
onset of effect (MCh response): slow onset of effect
time of peak bronchoprotection post-dose (MCh response): 6 h
ID50 (bronchoprotection) (MCh response): 6 µg/mL
time post dose at which most potent at inhibiting pilocarpine-induced salivation [1]: 6 h

Ki [2]: < 0.5 nM
SMILES: C[N+]1(CCCSc2ccccc2)CC[C@@H](C(C(N)=O)(c2ccccc2)c2ccccc2)C1 (stereo partly drawn) [Example 2, (S)-3-(Carbamoyldiphenylmethyl)-1-methyl-1-(3-phenylsulfanylpropyl)pyrrolidinium]

SMILES: CC(C)[N+]1(C)[C@@H]2CC[C@H]1C[C@@H](OC(=O)C(CO)c1ccccc1)C2 (stereo partly shown) [ipratropium]
fold less potent 6-hr post-dose compared to 1.5 hr potency (MCh response; 10 and 30 μg/ml): about 3 fold
ID50 (bronchoprotection) (MCh response): 4.4 µg/mL
